Measurements taken from ChEMBL document CHEMBL4177617 (Bioorg Med Chem Lett, 2017).

Test system: Clostridium botulinum
Assay: Inhibition of protease activity of Clostridium botulinum BoNT/A light chain using 66-mer SNAP-25 as substrate by LC-MS analysis relative to control
Conditions: concentration not given here; call rule not given here

Compound | inhibition
O=C(/C=C/c1ccc(O)c(O)c1)OC[C@@H]1C[C@@H]1COC(=O)/C=C/c1ccc(O)c(O)c1 | 75%
O=C(/C=C/c1ccc(O)c(O)c1)O[C@@H](C(=O)O)[C@@H](OC(=O)/C=C/c1ccc(O)c(O)c1)C(=O)O | 64%
O=C(/C=C/c1ccc(O)c(O)c1)Oc1ccccc1OC(=O)/C=C/c1ccc(O)c(O)c1 | 96%

Test system: not listed separately
Assay: Inhibition of protease activity of Clostridium botulinum BoNT/A light chain using 66-mer SNAP-25 as substrate by LC-MS analysis
Conditions: not given

Compound | IC50
CC(=O)Oc1ccc(/C=C/C(=O)Oc2ccccc2OC(=O)/C=C/c2ccc(OC(C)=O)c(OC(C)=O)c2)cc1OC(C)=O | Not Active
O=C(/C=C/c1ccc(CO)cc1)Oc1ccccc1OC(=O)/C=C/c1ccc(CO)cc1 | Not Active
NCCc1ccc(OC(=O)c2ccc(O)c(O)c2)c(OC(=O)c2ccc(O)c(O)c2)c1 | Not Active
O=Cc1ccc(/C=C/C(=O)Oc2ccccc2OC(=O)/C=C/c2ccc(C=O)cc2)cc1 | Not Active
O=C(/C=C/c1ccc([N+](=O)[O-])cc1)Oc1ccccc1OC(=O)/C=C/c1ccc([N+](=O)[O-])cc1 | Not Active

Same assay, conditions: read-out: IC50

Compound | IC50
O=C(/C=C/c1ccc(O)c(O)c1)O[C@H]1CCC[C@H]1OC(=O)/C=C/c1ccc(O)c(O)c1 | 2400 nM
O=C(/C=C/c1ccc(O)c(O)c1)OC[C@@H]1C[C@@H]1COC(=O)/C=C/c1ccc(O)c(O)c1 | 130 nM
O=C(/C=C/c1ccc(O)c(O)c1)Oc1cccc2cccc(OC(=O)/C=C/c3ccc(O)c(O)c3)c12 | 50 nM
CC(C)OC(=O)[C@H](OC(=O)/C=C/c1ccc(O)c(O)c1)[C@@H](OC(=O)/C=C/c1ccc(O)c(O)c1)C(=O)OC(C)C | 2700 nM
COC(=O)c1ccc(OC(=O)/C=C/c2ccc(O)c(O)c2)c(OC(=O)/C=C/c2ccc(O)c(O)c2)c1 | 390 nM
O=C(/C=C/c1ccc(O)c(O)c1)OC/C=C\COC(=O)/C=C/c1ccc(O)c(O)c1 | 450 nM
O=C(/C=C/c1ccc(O)c(O)c1)OCc1ccccc1OC(=O)/C=C/c1ccc(O)c(O)c1 | 140 nM
O=C(/C=C/c1ccc(O)c(O)c1)OC[C@H]1CC[C@H]1COC(=O)/C=C/c1ccc(O)c(O)c1 | 1700 nM
O=C(/C=C/c1ccc(O)c(O)c1)OCc1ccccc1COC(=O)/C=C/c1ccc(O)c(O)c1 | 1100 nM
O=C(/C=C/c1cccc(O)c1)Oc1ccccc1OC(=O)/C=C/c1cccc(O)c1 | > 20000 nM
O=C(Oc1ccccc1OC(=O)c1ccc(O)cc1)c1ccc(O)cc1 | 9500 nM
CC(C)(C)C(COC(=O)/C=C/c1ccc(O)c(O)c1)COC(=O)/C=C/c1ccc(O)c(O)c1 | 130 nM
O=C(/C=C/c1ccc(O)c(O)c1)O[C@@H]1CCCCC[C@H]1OC(=O)/C=C/c1ccc(O)c(O)c1 | 3200 nM
O=C(Oc1ccccc1OC(=O)c1ccc(O)c(O)c1)c1ccc(O)c(O)c1 | > 20000 nM
O=C(/C=C/c1ccc(O)c(O)c1)OCC#CCOC(=O)/C=C/c1ccc(O)c(O)c1 | 410 nM
O=C(/C=C/c1ccc(O)c(O)c1)Oc1cc2c(cc1OC(=O)/C=C/c1ccc(O)c(O)c1)OCCO2 | 300 nM
O=C(/C=C/c1ccc(O)c(O)c1)Nc1ccccc1NC(=O)/C=C/c1ccc(O)c(O)c1 | 3300 nM
O=C(/C=C/c1ccc(O)c(O)c1)Oc1cccc(OC(=O)/C=C/c2ccc(O)c(O)c2)c1 | 560 nM
O=C(/C=C/c1ccc(O)c(O)c1)O[C@H]1CCCC[C@H]1OC(=O)/C=C/c1ccc(O)c(O)c1 | 3200 nM
O=C(/C=C/c1ccc(O)c(O)c1)Oc1ccccc1OC(=O)/C=C/c1ccc(O)c(O)c1 | 490 nM
